Source: patent US20050165024A1, “Urea derivatives as kinase modulators” (Ambit Biosciences Corporation, priority 2003, published 2005)

Legend:
Conditions in all cases: Kd class symbols
p38-alpha(FKIN) = target: T1, p38-alpha(FKIN) (Homo sapiens, UniProt Q16539); assay: Binding constant (Kd) measurement, phage-displayed kinase competition binding assay: p38
T1 construct: made in house
From the text: (§1) The term “ND” represents non-determined values.

MKNK2 (DKIN) = target: T2, MKNK2 (DKIN) (Homo sapiens, UniProt Q9HBH9); assay: Binding constant (Kd) measurement, phage-displayed kinase competition binding assay: MKNK2
T2 construct: (DKIN); made in house
From the text: as §1

STK10(DKIN) = target: T3, STK10(DKIN) (Homo sapiens, UniProt O94804); assay: Binding constant (Kd) measurement, phage-displayed kinase competition binding assay: STK10
T3 construct: STK10(DKIN); made in house
From the text: as §1

T3 sequence (O94804 36-294 limits assumed): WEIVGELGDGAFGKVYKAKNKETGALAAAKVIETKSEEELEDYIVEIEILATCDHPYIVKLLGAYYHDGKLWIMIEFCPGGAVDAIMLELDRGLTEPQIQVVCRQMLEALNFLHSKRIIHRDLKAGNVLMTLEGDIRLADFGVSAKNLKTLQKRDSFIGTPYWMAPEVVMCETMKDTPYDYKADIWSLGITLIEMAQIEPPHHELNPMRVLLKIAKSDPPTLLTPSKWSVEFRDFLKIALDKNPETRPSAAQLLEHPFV
T2 sequence (Q9HBH9 84-388 limits assumed): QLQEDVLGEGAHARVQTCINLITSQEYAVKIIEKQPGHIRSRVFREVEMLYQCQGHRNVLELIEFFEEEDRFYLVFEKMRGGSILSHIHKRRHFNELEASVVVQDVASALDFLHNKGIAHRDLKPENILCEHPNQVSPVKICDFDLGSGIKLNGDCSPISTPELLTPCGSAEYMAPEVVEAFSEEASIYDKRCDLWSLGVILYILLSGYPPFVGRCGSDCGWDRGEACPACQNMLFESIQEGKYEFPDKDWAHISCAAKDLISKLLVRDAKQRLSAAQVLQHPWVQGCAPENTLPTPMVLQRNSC
T1 sequence (Q16539 whole entry): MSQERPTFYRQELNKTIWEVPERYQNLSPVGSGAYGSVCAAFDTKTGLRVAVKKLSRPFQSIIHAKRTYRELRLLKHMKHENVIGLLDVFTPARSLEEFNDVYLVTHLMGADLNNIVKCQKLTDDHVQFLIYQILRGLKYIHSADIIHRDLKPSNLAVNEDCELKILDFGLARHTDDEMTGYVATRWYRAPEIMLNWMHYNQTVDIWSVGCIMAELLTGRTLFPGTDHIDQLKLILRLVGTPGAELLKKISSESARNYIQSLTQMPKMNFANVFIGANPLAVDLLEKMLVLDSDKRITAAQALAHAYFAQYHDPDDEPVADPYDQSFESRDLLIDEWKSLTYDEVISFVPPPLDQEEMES

Kd (p38-alpha(FKIN)) [nM]	Structure (SMILES)	further results
1000 to 10000	Cc1ccc(NC(=O)Nc2cc(C(C)(C)C)on2)cc1	
1000 to 10000	CC(C)(C)c1cc(NC(=O)Nc2ccc(O)cc2)no1	
1000 to 10000	CC(C)(C)c1cc(NC(=O)Nc2ccc(Cl)cc2)on1	
1000 to 10000	COc1ccc(NC(=O)Nc2cc(C(C)(C)C)on2)cc1	
1000 to 10000	COc1ccc(NC(=O)Nc2cc(C(C)(C)C)no2)cc1	
1000 to 10000	CC(C)(C)c1cc(NC(=O)Nc2ccc(Cl)cc2)no1	
100 to 1000	CC(C)(C)c1cc(NC(=O)Nc2ccc(Br)cc2F)on1	
< 100	CC(C)(C)c1cc(NC(=O)Nc2ccc(OCCN3CCCCC3)c3ccccc23)no1	
1000 to 10000	CSc1ccc(NC(=O)Nc2cc(C(C)(C)C)no2)cc1	
1000 to 10000	CSc1ccc(NC(=O)Nc2cc(C(C)(C)C)on2)cc1	
100 to 1000	COc1ccc(NC(=O)Nc2cc(C(C)(C)C)nn2-c2ccc(C)cc2)cc1	
100 to 1000	Cc1ccc(-n2nc(C(C)(C)C)cc2NC(=O)Nc2ccc(Br)cc2C(F)(F)F)cc1	
100 to 1000	CC(C)(C)c1cc(NC(=O)NCc2cccc(Cl)c2)no1	
100 to 1000	Cc1ccc(-n2nc(C(C)(C)C)cc2NC(=O)Nc2cc(C(C)(C)C)on2)cc1	
100 to 1000	Cc1ccc(-n2nc(C(C)(C)C)cc2NC(=O)Nc2ccc(Cl)c(C(F)(F)F)c2)cc1	
< 100	Cc1ccc(-n2nc(C(C)(C)C)cc2NC(=O)Nc2ccc(Cl)cc2)cc1	
1000 to 10000	C[S+]([O-])c1ccc(NC(=O)Nc2cc(C(C)(C)C)on2)cc1 (stereo not drawn)	
100 to 1000	Cc1ccc(-n2nc(C(C)(C)C)cc2NC(=O)Nc2ccc(O)cc2)cc1	
1000 to 10000	CC(C)(C)c1cc(NC(=O)Nc2ccccc2)no1	
100 to 1000	Cc1c(Cl)cccc1NC(=O)Nc1cc(C(C)(C)C)on1	
100 to 1000	Cc1ccc(-n2nc(C(C)(C)C)cc2NC(=O)Nc2ccc(OCc3ccccc3)cc2)cc1	
< 100	Cc1ccc(-n2nc(C(C)(C)C)cc2NC(=O)Nc2ccc(OCCN3CCOC(CO)C3)c3ccccc23)cc1 (stereo not drawn)	
100 to 1000	CC(C)(C)c1cc(NC(=O)Nc2ccc(NC(=O)c3cccnc3)cc2)no1	
100 to 1000	NC(=O)c1cc(Oc2ccc(Nc3c(Nc4ccc(Cl)c(C(F)(F)F)c4)c(=O)c3=O)cc2)ccn1	
100 to 1000	Cn1nc(C(C)(C)C)cc1NC(=O)Nc1cccc2ccccc12	

Kd (p38-alpha(FKIN)) [nM]	Structure (SMILES)	further results
	Cc1cnc(C(=O)Nc2ccc(NC(=O)Nc3cc(C(C)(C)C)on3)cc2)cn1	Kd (MKNK2 (DKIN)): 100 to 1000 nM
	CC(C)(C)c1cc(NC(=O)Nc2ccc(NC(=O)c3ccc4ncccc4c3)cc2)no1	Kd (MKNK2 (DKIN)): 1000 to 10000 nM
	CC(C)(C)c1cc(NC(=O)Nc2ccc(NC(=O)c3cnnc4ccccc34)cc2)no1	Kd (MKNK2 (DKIN)): < 100 nM
	CC(C)(C)c1cc(NC(=O)Nc2ccc(NC(=O)c3cccc4nsnc34)cc2)no1	Kd (MKNK2 (DKIN)): 1000 to 10000 nM
	CC(C)(C)c1cc(NC(=O)Nc2ccc(NC(=O)c3cscn3)cc2)no1	Kd (MKNK2 (DKIN)): 100 to 1000 nM
	CC(C)(C)c1cc(NC(=O)Oc2ccc(NC(=O)c3nccnc3N)cc2)no1	Kd (MKNK2 (DKIN)): 100 to 1000 nM
	Cc1cnc(C(=O)Nc2ccc(NC(=O)Nc3cc(C(C)(C)C)on3)cc2)c(C(=O)O)n1	Kd (MKNK2 (DKIN)): 1000 to 10000 nM
	CC(C)(C)c1cc(NC(=O)Nc2ccc(NC(=O)c3nccnc3N)cc2)no1	Kd (STK10(DKIN)): 100 to 1000 nM
	CC(C)(C)c1cc(NC(=O)Nc2ccc(N3C(=O)c4ccccc4C3=O)cc2)no1	Kd (STK10(DKIN)): < 100 nM
1000 to 10000	CC(C)(C)c1cc(NC(=O)Nc2ccc(NC(=O)c3cnc4ccccc4c3)cc2)no1 [drawing 680]	
	CC(C)(C)c1cc(NC(=O)Nc2ccc(Nc3nc(Cl)nc4[nH]cnc34)cc2)no1 [drawing 682]	Kd (MKNK2 (DKIN)): 1000 to 10000 nM
	COc1cc2nc(Cl)nc(Nc3ccc(NC(=O)Nc4cc(C(C)(C)C)on4)cc3)c2cc1OC [drawing 684]	Kd (MKNK2 (DKIN)): 1000 to 10000 nM
	CC(C)(C)c1cc(NC(=O)Nc2ccc(Nc3ncnc4[nH]cnc34)cc2)no1 [drawing 686]	Kd (MKNK2 (DKIN)): < 100 nM
	CC(C)(C)c1cc(NC(=O)Nc2ccc(NC(=O)c3ncccc3O)cc2)no1 [drawing 687]	Kd (MKNK2 (DKIN)): < 100 nM
	CC(C)(C)c1cc(NC(=O)Nc2ccc(NC(=O)c3cnc4ccccc4c3)cc2)no1 [drawing 689]	Kd (MKNK2 (DKIN)): 1000 to 10000 nM
	CC(C)(C)c1cc(NC(=O)Nc2ccc(Nc3nc(N)nc4[nH]cnc34)cc2)no1 [drawing 691]	Kd (MKNK2 (DKIN)): < 100 nM
	COc1cc2ncnc(Nc3ccc(NC(=O)Nc4cc(C(C)(C)C)on4)cc3)c2cc1OC [drawing 692]	Kd (MKNK2 (DKIN)): < 100 nM
	COc1cc(OC)nc(Oc2cccc(C(=O)Nc3ccc(NC(=O)Nc4cc(C(C)(C)C)on4)cc3)c2)n1 [drawing 693]	Kd (MKNK2 (DKIN)): 100 to 1000 nM
	CC(C)(C)c1cc(NC(=O)Nc2ccc(NC(=O)c3ncccc3O)cc2)no1 [drawing 696]	Kd (STK10(DKIN)): 100 to 1000 nM
	CC(C)(C)c1cc(NC(=O)Nc2ccc(Nc3nc(Cl)nc4[nH]cnc34)cc2)no1 [drawing 697]	Kd (STK10(DKIN)): 100 to 1000 nM
	COc1cc2ncnc(Nc3ccc(NC(=O)Nc4cc(C(C)(C)C)on4)cc3)c2cc1OC [drawing 698]	Kd (STK10(DKIN)): < 100 nM
	COc1cc2nc(Cl)nc(Nc3ccc(NC(=O)Nc4cc(C(C)(C)C)on4)cc3)c2cc1OC [drawing 699]	Kd (STK10(DKIN)): < 100 nM
	COc1cc(OC)nc(Oc2cccc(C(=O)Nc3ccc(NC(=O)Nc4cc(C(C)(C)C)on4)cc3)c2)n1 [drawing 700]	Kd (STK10(DKIN)): 1000 to 10000 nM
	CC(C)(C)c1cc(NC(=O)Nc2ccc(Nc3ncnc4[nH]cnc34)cc2)no1 [drawing 701]	Kd (STK10(DKIN)): < 100 nM
	CC(C)(C)c1cc(NC(=O)Nc2ccc(Nc3nc(N)nc4[nH]cnc34)cc2)no1 [drawing 703]	Kd (STK10(DKIN)): 100 to 1000 nM

Structure (SMILES)	Kd (p38-alpha(FKIN)) [nM]	further results
O=C(Nc1ccccc1)Nc1cc(Cl)c([N+](=O)O)cc1O	100 to 1000	
